Reference: patent US8846671B2, “Heterocyclic alkynyl benzene compounds and medical compositions and uses thereof” (Guangzhou Institute of Biomedicine and Health, Chinese …, priority 2010, dated 2014)
Like-named read-outs stand apart in the source and are kept apart here.

What was measured:
[1] = biological target: BAF3-T315I cells (Ba/F3 cell line stably expressing BCR/ABL T315I) (Homo sapiens, UniProt P00519, T315I, cells depend on it); assay: tumor cell proliferation, MTT or CCK8 assay, 72 h incubation; format: cell-based, mice
Protocol: (§1) The heterocyclic alkynyl benzene compounds at different concentrations (1×10^−10˜1×10^−5M) were incubated for 72 hours individually applied to 6 cell lines K562 (human CML cell line), MOLT-4 (human ALL cell line), U937 (human CML cell line), MEG-01 (human CML cell line), L78 (human lung cancer cell line), Ba/F3-T315I (mice Pro-B cells transformed with Bcr-AblT315I and STI57′-resistant cell line). After incubation for 72 hrs, cell proliferation was then determined by MTT assay or CCK8 assay, and 4 hr incubation is further conducted, the absorbance at 570 nm (CCK8, 450 nm, 650 nm) was measured using enzyme Microplate Reader.

[2] = tested on: K562R cells (imatinib-resistant cell line); assay: as above; format: cell-based; conditions: Homo sapiens, K-562R, imatinib-resistant K562R, read-out: IC50 on tumor cell proliferation, K562R cells
[3] = Pharmacokinetics and bioavailability in rats; format: in vivo; conditions: SD rats; corresponding pharmaceutical acceptable salt forms
Protocol: Pharmacokinetics and bioavailability in rats. […] The blood samples were collected at the proper time points after administration, add heparin-anticoagulant, and the supernatants of the blood samples were collected (3000 rpm, 10 min) and stored at -20° C. for HPLC-MS analysis. After protein-precipitation procedure with acetonitrile, supernatants were collected after 3000 rpm, 10 min for analysis with HPLC-MS. The data were analyzed with software DAS2.0 to separately acquire the parameters of compartment models and non-compartment models. The bioavailability was calculated according to AUC data.

[4] = tested on: K562 (human chronic myelogenous leukemia cell line); assay: tumor cell proliferation, MTT or CCK8 assay, 72 h incubation; format: cell-based; conditions: K562, 72 h, read-out: IC50 on tumor cell proliferation, K562
Protocol: as §1, with “Reader. […] Based on the inhibition potency of the heterocyclic alkynyl benzene compounds on the cell proliferation, IC50 values were calculated and summarized in the Table 1 and Table 2 (The compounds used were synthesized by Examples 1-40, and the compounds are marked with Drug No. series in Table 1).” for “Reader.”

[5] = tested on: MOLT-4 (Human acute lymphoblastic leukemia cell line); assay: as above; format: cell-based; conditions: MOLT-4, 72 h, read-out: IC50 on tumor cell proliferation, MOLT-4
Protocol: as §1, with “Reader. […] Based on the inhibition potency of the heterocyclic alkynyl benzene compounds on the cell proliferation, IC50 values were calculated and summarized in the Table 1 and Table 2 (The compounds used were synthesized by Examples 1-40, and the compounds are marked with Drug No. series in Table 1).” for “Reader.”

[6] = tested on: U937 Cell line; assay: as above; format: cell-based; conditions: Homo sapiens, U-937; 72 h, MTT or CCK8; no unit in cell; read-out: IC50 on tumor cell proliferation, U937
Protocol: as §1, with “Reader. […] Based on the inhibition potency of the heterocyclic alkynyl benzene compounds on the cell proliferation, IC50 values were calculated and summarized in the Table 1 and Table 2 (The compounds used were synthesized by Examples 1-40, and the compounds are marked with Drug No. series in Table 1).” for “Reader.”

[7] = Ba/F3 expressing BCR/ABL T315I, 72 h, Table 1; read-out: IC50 on tumor cell proliferation, BAF3-T315I cells

## Cc1cn(-c2cc(NC(=O)c3ccc(C)c(C#Cc4cnc5ccnn5c4)c3)cc(C(F)(F)F)c2)cn1 [D822, 4-methyl-N-(3-(4-methyl-1H-imidazol-1-yl)-5-(trifluoromethyl)phenyl)-3-(2-(pyrazolo[1,5-a]pyrimidin-6-yl)ethynyl)benzamide]
[1]; [7]
  GI50: 1100 nM
[2]
  IC50: 580 nM
[3]
  pharmacokinetics parameters, overall judgement: adequate pharmacokinetics parameters
[4]; MTT or CCK8, nM
  IC50: 4.34 nM
[5]; MTT or CCK8, nM
  IC50: > 100 nM

## Cc1cn(-c2cc(NC(=O)c3ccc(C)c(C#Cc4cnc5[nH]ncc5c4)c3)cc(C(C)(C)C)c2)cn1 [D968, 3-(2-(1H-pyrazolo[3,4-b]pyridin-5-yl)ethynyl)-N-(3-tert-butyl-5-(4-methyl-1H-imidazol-1-yl)phenyl)-4-methylbenzamide]
[1]; [7]
  GI50: 6.36 nM
[2]
  IC50: 32 nM
[6]
  IC50: > 1000 nM
[4]; MTT or CCK8, no unit in cell
  IC50: 0.701 nM

## Cc1cn(-c2cc(F)cc(NC(=O)c3ccc(C)c(C#Cc4cnc5[nH]ncc5c4)c3)c2)cn1 [D963, 3-(2-(1H-pyrazolo[3,4-b]pyridin-5-yl)ethynyl)-N-(3-fluoro-5-(4-methyl-1H-imidazol-1-yl)phenyl)-4-methylbenzamide]
[1]; [7]
  GI50: 243 nM
[2]
  IC50: 75.1 nM
[6]
  IC50: > 1000 nM
[4]; MTT or CCK8, no unit in cell
  IC50: 0.997 nM

## Cc1cn(-c2cc(Cl)cc(NC(=O)c3ccc(C)c(C#Cc4cnc5[nH]ncc5c4)c3)c2)cn1 [D964, 3-(2-(1H-pyrazolo[3,4-b]pyridin-5-yl)ethynyl)-N-(3-chloro-5-(4-methyl-1H-imidazol-1-yl)phenyl)-4-methylbenzamide]
[1]; [7]
  GI50: 24.2 nM
[2]
  IC50: 32 nM
[6]
  IC50: > 1000 nM
[4]; MTT or CCK8, no unit in cell
  IC50: 0.938 nM

## Cc1ccc(C(=O)Nc2ccc(CN3CC[C@H](N(C)C)C3)c(C(F)(F)F)c2)cc1C#Cc1cnc2[nH]ncc2c1 [D966, (S)-3-(2-(1H-pyrazolo[3,4-b]pyridin-5-yl)ethynyl)-N-(4-((3-(dimethylamino)pyrrolidin-1-yl)methyl)-3-(trifluoromethyl)phenyl)-4-methylbenzamide]
[1]; [7]
  GI50: 13.8 nM
[6]
  IC50: 18.5 nM
[4]; MTT or CCK8, no unit in cell
  IC50: 0.324 nM

## Cc1ccc(C(=O)Nc2ccc(CN3CCN(C)CC3)c(C(F)(F)F)c2)cc1C#Cc1cnc2[nH]ncc2c1 [D824, 3-(2-(1H-pyrazolo[3,4-b]pyridin-5-yl)ethynyl)-4-methyl-N-(4-((4-methylpiperazin-1-yl)methyl)-3-(trifluoromethyl)phenyl)benzamide]
[1]; read-out: IC50 on tumor cell proliferation, BAF3-T315I cells; Ba/F3 expressing BCR/ABL T315I, 72 h, Table 1
  GI50: 1.65 nM
[2]
  IC50: 14 nM
[3]
  pharmacokinetics parameters, overall judgement: adequate pharmacokinetics parameters
[4]; MTT or CCK8, nM
  IC50: 0.494 nM
[5]; MTT or CCK8, nM
  IC50: > 100 nM

## Cc1cn(-c2cc(NC(=O)c3ccc(C)c(C#Cc4cnc(NC[C@H](O)CO)nc4)c3)cc(C(F)(F)F)c2)cn1 [D834, 3-(2-(2-((S)-2,3-dihydroxypropylamino)pyrimidin-5-yl)ethynyl)-4-methyl-N-(3-(4-methyl-1H-imidazol-1-yl)-5-(trifluoromethyl)phenyl)benzamide]
[1]; [7]
  GI50: 215 nM
[2]
  IC50: 190 nM
[4]; MTT or CCK8, nM
  IC50: 8.7 nM
[5]; MTT or CCK8, nM
  IC50: > 100 nM

## Cc1ccc(C(=O)Nc2ccc(CN3CC[C@@H](N(C)C)C3)c(C(F)(F)F)c2)cc1C#Cc1cnc2[nH]ncc2c1 [D965, (R)-3-(2-(1H-pyrazolo[3,4-b]pyridin-5-yl)ethynyl)-N-(4-((3-(dimethylamino)pyrrolidin-1-yl)methyl)-3-(trifluoromethyl)phenyl)-4-methylbenzamide]
[1]; [7]
  GI50: 6.87 nM
[2]
  IC50: 5.7 nM
[6]
  IC50: 817 nM
[4]; MTT or CCK8, no unit in cell
  IC50: 0.588 nM

## Cc1ccc(C(=O)Nc2ccc(CN3CCOCC3)c(C(F)(F)F)c2)cc1C#Cc1cnc2ccnn2c1 [D931, 4-methyl-N-(4-(morpholinomethyl)-3-(trifluoromethyl)phenyl)-3-(2-(pyrazolo[1,5-a]pyrimidin-6-yl)ethynyl)benzamide]
[1]; [7]
  GI50: 2750 nM
[2]
  IC50: 510 nM
[6]
  IC50: 4600 nM
[4]; MTT or CCK8, no unit in cell
  IC50: > 10000 nM
[5]; MTT or CCK8, no unit in cell
  IC50: 7430 nM

## Cc1ccc(C(=O)Nc2ccc(CN3CCN(CCO)CC3)c(C(F)(F)F)c2)cc1C#Cc1cnc2ccnn2c1 [D942, N-(4-((4-(2-hydroxyethyl)piperazin-1-yl)methyl)-3-(trifluoromethyl)phenyl)-4-methyl-3-(2-(pyrazolo[1,5-a]pyrimidin-6-yl)ethynyl)benzamide]
[1]; [7]
  GI50: 102 nM
[2]
  IC50: 44 nM
[6]
  IC50: 1300 nM
[4]; MTT or CCK8, no unit in cell
  IC50: 3.54 nM
[5]; MTT or CCK8, no unit in cell
  IC50: 674 nM

## Cc1cn(-c2cccc(NC(=O)c3ccc(C)c(C#Cc4cnc5[nH]ncc5c4)c3)c2)cn1 [D967, 3-(2-(1H-pyrazolo[3,4-b]pyridin-5-yl)ethynyl)-4-methyl-N-(3-(4-methyl-1H-imidazol-1-yl)phenyl)benzamide]
[1]; [7]
  GI50: 798 nM
[2]
  IC50: 207 nM
[6]
  IC50: 5830 nM
[4]; MTT or CCK8, no unit in cell
  IC50: 0.314 nM

## Cc1cn(-c2cc(NC(=O)c3ccc(C)c(C#Cc4ccc(N)nc4)c3)cc(C(F)(F)F)c2)cn1 [D827, 3-(2-(6-aminopyridin-3-yl)ethynyl)-4-methyl-N-(3-(4-methyl-1H-imidazol-1-yl)-5-(trifluoromethyl)phenyl)benzamide]
[1]; [7]
  GI50: 29.8 nM
[2]
  IC50: 59 nM
[4]; MTT or CCK8, nM
  IC50: 2.68 nM
[5]; MTT or CCK8, nM
  IC50: 1850 nM

## Cc1cn(-c2cc(NC(=O)c3ccc(C)c(C#Cc4cnc5[nH]ccc5c4)c3)cc(C(F)(F)F)c2)cn1 [D832, 3-(2-(1H-pyrrolo[2,3-b]pyridin-5-yl)ethynyl)-4-methyl-N-(3-(4-methyl-1H-imidazol-1-yl)-5-(trifluoromethyl)phenyl)benzamide]
[1]; [7]
  GI50: 21.8 nM
[2]
  IC50: 200 nM
[4]; MTT or CCK8, nM
  IC50: 7.27 nM
[5]; MTT or CCK8, nM
  IC50: > 100 nM

## Cc1cn(-c2cc(NC(=O)c3ccc(C)c(C#Cc4cnc5ccnn5c4)c3)cc(C(C)(C)C)c2)cn1 [D941, N-(3-tert-butyl-5-(4-methyl-1H-imidazol-1-yl)phenyl)-4-methyl-3-(2-(pyrazolo[1,5-a]pyrimidin-6-yl)ethynyl)benzamide]
[1]; [7]
  GI50: 102 nM
[2]
  IC50: 410 nM
[6]
  IC50: 696 nM
[4]; MTT or CCK8, no unit in cell
  IC50: 2.34 nM
[5]; MTT or CCK8, no unit in cell
  IC50: 340 nM

## Cc1ccc(C(=O)Nc2cc(-n3ccnc3)cc(C(F)(F)F)c2)cc1C#Cc1cnc2[nH]ncc2c1 [D831, N-(3-(1H-imidazol-1-yl)-5-(trifluoromethyl)phenyl)-3-(2-(1H-pyrazolo[3,4-b]pyridin-5-yl)ethynyl)-4-methylbenzamide]
[1]; [7]
  GI50: 36.8 nM
[2]
  IC50: 54 nM
[3]
  pharmacokinetics parameters, overall judgement: adequate pharmacokinetics parameters
[4]; MTT or CCK8, nM
  IC50: 0.466 nM
[5]; MTT or CCK8, nM
  IC50: 7130 nM

## Cc1ccc(C(=O)Nc2ccc(CN3CCN(C)CC3)c(C(F)(F)F)c2)cc1C#Cc1cnc(NC2CC2)nc1 [D825, 3-(2-(2-(cyclopropylamino)pyrimidin-5-yl)ethynyl)-4-methyl-N-(4-((4-methylpiperazin-1-yl)methyl)-3-(trifluoromethyl)phenyl)benzamide]
[1]; [7]
  GI50: 15.7 nM
[2]
  IC50: 50 nM
[3]
  pharmacokinetics parameters, overall judgement: adequate pharmacokinetics parameters
[4]; MTT or CCK8, nM
  IC50: 1.88 nM
[5]; MTT or CCK8, nM
  IC50: 92.9 nM

## Cc1ccc(C(=O)Nc2ccc(CN3CC[C@@H](N(C)C)C3)c(C(F)(F)F)c2)cc1C#Cc1cnc2ccnn2c1 [D943]
[1]; [7]
  GI50: 618 nM
[2]
  IC50: 320 nM
[6]
  IC50: 2120 nM
[4]; MTT or CCK8, no unit in cell
  IC50: 8.3 nM
[5]; MTT or CCK8, no unit in cell
  IC50: 1630 nM

## Cc1ccc(C(=O)Nc2ccc(CN3CC[C@H](N(C)C)C3)c(C(F)(F)F)c2)cc1C#Cc1cnc2ccnn2c1 [D940, (S)—N-(4-((3-(dimethylamino)pyrrolidin-1-yl)methyl)-3-(trifluoromethyl)phenyl)-4-methyl-3-(2-(pyrazolo[1,5-a]pyrimidin-6-yl)ethynyl)benzamide]
[1]; [7]
  GI50: 245 nM
[2]
  IC50: 32 nM
[6]
  IC50: 715 nM
[4]; MTT or CCK8, no unit in cell
  IC50: 65.7 nM
[5]; MTT or CCK8, no unit in cell
  IC50: 955 nM
